Tests used:
[1] = Systemic off-target effects, histologic examination after 35 days; type: in vivo
Protocol: Histologic examination of tissue: Organs of athymic male mice stained with hematoxylin and eosin, trichrome, or giemsa were microscopically examined by a mouse pathologist (L.L.) in a blinded fashion, and toxicity scored using an established semi-quantitative histological scoring system[38] (Supplementary Fig. 8). The following clinical chemistry parameters were measured in blood of CD1 male and female mice by Charles River Research Animal Diagnostic Services: cholesterol, triglycerides, alanine aminotransferase, aspartate aminotransferase, total bilirubin, glucose, phosphorus, total protein, calcium, blood urea nitrogen (BUN), creatinine, albumin, Na, K, Cl, white blood cells (with differential), red blood cells, hemoglobin, and platelets.
Supplementary Figure 7. KBU2046 treatment is not associated with systemic off-target effects. For histologic examination of tissue, cohorts of N=5 male 6-8 week old Balb/c athymic […]
KBU2046 as described in manuscript Figure 2a. […] Organs were examined for damage using a semi-quantitative histological scoring system, as described 4. […]

[2] = tested on: phosphoproteins in PC3 cells; experiment: PhosphoScan LC-MS/MS of BL4176 immunoprecipitates; type: cell-based, human
Protocol: The Kinoview™ and PhosphoScan™ assays were performed by Cell Signaling Technology Inc.
Supplementary Figure 12. Identification of the 83 kDa band using a proteomic approach.
(a) PC3 cells were pre-treated with 10 µM KBU2046 or vehicle (control) for 3 days, then treated with TGFβ for 1 hr, and the resultant cell lysates were subjected to immunoprecipitation with BL4176 (Kinoview® phospho-motif antibody). Proteins bound in this manner were analyzed in replicates of N=2 using PhosphoScan™ technology. This identified 483 unique phosphopeptide assignments from 306 parent proteins, with a mean false discovery rate of 0.30% (estimated via Sorcerer search of composite human database of forward and reverse protein entries). We only considered proteins where the average values for treatment and control were each 3 times that of background. Further, we required each of the N=2 replicate values (used to calculate the average) to be >/= 2.5 fold above background. We were only interested in situations in which protein decreased with KBU2046, and we required that decrease to be >/= 2.5 fold, compared to control.
According to these parameters, there were 19 phospho-proteins whose expression decreased in cells treated with KBU2046, compared to control. These are depicted above. Recognizing that each of these proteins may have value, we elected to remain focused on the 83 kDa protein, and therefore only considered proteins +/- 5 kDa of this value. Only heat shock protein 90 (HSP90)β

[3] = molecular target: T1, cysteine and glycine-rich protein 1 (Homo sapiens, UniProt P21291); experiment: ProtoArray binding, cysteine and glycine-rich protein 1; conditions: 10 fold excess free KBU2046
T1 construct: purchased Invitrogen
Protocol: The ProtoArray® assay, using the Human Protein Microarray platform, was performed by Invitrogen. […]
followed by detection with FITC-streptavidin, and visualization by fluorescent microscopy (with equal exposure times). (d) Protein array hybridization. KBU2046-biotin was hybridized to ProtoArray® Human Protein Microarray’s at 0.5 and 10 µM with and without 10 fold excess free KBU2046. We first sought proteins that met the following criteria, and did so at both 0.5 and 10 µM concentrations of KBU2046-biotin (in the absence of free KBU2046): Z-Score greater than 2.5, Z-Factor greater than 0.5, CI P-value less than 0.05, negative control value <2,000 (relative fluorescence units; RFUs), and a signal/negative control signal of >10 and >5 for 10 µM and 0.5 µM conditions, respectively. This yielded 3 proteins, shown in table, for an initial hit rate of 0.03%. We then required free KBU2046 to inhibit binding by >75%. Of the two remaining candidates, we eliminated isovaleryl-CoA dehydrogenase (ICD). Its binding signal doubled on […]
suspected non-specific binding by the biotin-linker moiety. We deemed cysteine and glycine-rich protein 1 (CSRP1) our top priority protein, though its binding characteristics at 10 µM + free KBU2046 were similar to ICD, albeit not as extreme. We thus evaluated whether KBU2046- […]
There were two additional notable findings from protein array studies. […]

[4] = tested on: p38 MAPK and HSP27 phosphorylation; experiment: Phosphorylation of p38 MAPK and HSP27 in PC3-M cells, Western blot; type: cell-based, human; conditions: 50 µM, 24 hours, then TGFβ
Protocol: Supplementary Figure 9. […] (a) Depiction of […]
established MKK4 pathway regulating human PCa cell metastasis. […]
to MKK4, as measured by fluorescence-based thermal shift assay. Values are the mean±SD (of N=2 replicates) increase in melting temperature (ΔTm) of purified recombinant MKK4 induced by the indicated concentrations of KBU2046 or genistein. […]
in an in vitro kinase assay. The indicated concentrations of KBU2046 were added to recombinant activated MKK4, and its ability to phosphorylate kinase dead p38α MAPK (K53A) was measured by Western blot for total (p38 MAPK) and phosphorylated (pp38 MAPK) forms of […]
HSP27 in cells. PC3-M cells were pre-treated for 24 hours with 50 µM KBU2046 or genistein, as indicated, then with TGFβ, and Western blot performed. All findings are from a single experiment, with similar findings in identical separate experiments, repeated at least once. […]

T1 sequence (P21291 whole entry): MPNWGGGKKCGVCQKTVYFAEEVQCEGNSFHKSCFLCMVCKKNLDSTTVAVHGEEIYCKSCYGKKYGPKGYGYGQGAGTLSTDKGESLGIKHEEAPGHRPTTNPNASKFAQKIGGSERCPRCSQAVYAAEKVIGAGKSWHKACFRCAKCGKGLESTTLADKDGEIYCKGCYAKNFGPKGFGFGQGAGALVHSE

## O=C1c2ccccc2OCC1c1ccc(F)cc1 (racemic) [KBU2046, (±)-3(4-fluorophenyl)chroman-4-one]
[1]; athymic mice, KBU2046 in chow, 35 days
  organ damage, histological scoring: No organ damage was observed
[1]; oral doses up to 150 mg/kg, up to 35 days
  toxicity after oral dosing: no observed toxicity
[2]; AALDALNT*DDENDEEEYEAWK
  fold change, MFAP1: -21.8 fold
[2]; CNT*DDTIGDLKK
  fold change, UBL5: -2.9 fold
[2]; DLLS*DLQDIS*DSER
  fold change, PITSLRE: -3.3 fold
[2]; DQKLS*ELDDR
  fold change, VAMP1: -3.6 fold
[2]; DRPHAS*GT*DGDES*EEDPPEHKPSK
  fold change, PIMT: -4.7 fold
[2]; DRPHASGT*DGDES*EEDPPEHKPSK
  fold change, PIMT: -3.0 fold
[2]; EIS*DDEAEEEKGEKEEEDKDDEEKPK
  fold change, HSP90B: -6.6 fold
[2]; ERDHS*PTPSVFNS*DEER
  fold change, FIP1L1: -2.9 fold
[2]; GHHVT*DSENDEPLNLNAS*DSESEELHR
  fold change, IWS1: -3.2 fold
[2]; HVLS*DLEDDEVR
  fold change, NIN: -3.1 fold
[2]; LLKPGEEPS*EYT*DEEDTKDHNK, PC3, 10 µM 3 days, TGFβ 1 hr
  fold change, PGRMC2: -2.5 fold
[2]; MQNT*DDEERPQLS*DDER
  fold change, LEO1: -3.4 fold
[2]; NGSLDSPGKQDT*EEDEEEDEKDKGK
  fold change, NudC: -2.5 fold
[2]; PC3 cells, KBU2046 then TGFβ
  decrease in abundance of phosphorylated Ser226 on HSP90β: 6.6 fold
[2]; S*ES*SDFEVVPK
  fold change, BAT2D1: -2.7 fold
[2]; SEDGYHS*DGDYGEHDYR
  fold change, RBM5: -2.7 fold
[2]; SRS*DIDVNAAAGAK
  fold change, CLASP2: -2.4 fold
[2]; TKFAS*DDEHDEHDENGATGPVK
  fold change, SSB: -4.5 fold
[2]; VGPGNHGTEGS*GGERHS*DTDS*DRR
  fold change, SEC62: -2.8 fold
[2]; VGPGNHGTEGSGGERHS*DT*DSDRR
  fold change, SEC62: -2.6 fold
[3]; 0.5 uM KBU2046-biotin
  % inhibition by competitor: 79%
[3]; 10 uM KBU2046-biotin
  % inhibition by competitor: 33%
[4]
  downstream phosphorylation of p38 MAPK and HSP27: did not inhibit downstream phosphorylation

From paper PMC6014988, “Precision therapeutic targeting of human cancer cell motility” (Nature Communications, 2018)
